The values below come from patent US11969428B2, “Methods and pharmaceutical compositions for treating lymphoid malignancy” (priority 2011, dated 2024).

In one test the target is p110α (Homo sapiens, UniProt P42336). Briefly: ex-vivo PI3 kinase assay using recombinant PI3K. The settings on record: ATP at Km. The class given is biochemical. The protocol: (§1) CAL-130 is a derivative of IC87114 (Gilead Sciences, Foster City, CA), the synthesis of which has been previously described (Sadhu et al., 2003 and Sadhu et al., U.S. Pat. Nos. 6,518,277 and 6,667,300, which are incorporated by reference as if recited in full herein). […] values for CAL-130 inhibition of PI3K isoforms were determined in ex-vivo PI3 kinase assays using recombinant PI3K. A 10-point kinase inhibitory profile was determined with ATP at a concentration consistent with the Km for each enzyme (Puri et al., 2004).

For the next test, the target named is p110β (Homo sapiens, UniProt P42338). The test is described as follows: ex-vivo PI3 kinase assay using recombinant PI3K. The class given is biochemical. The settings on record: ATP at Km. The protocol:
as §1

The next test addresses p110γ (Homo sapiens, UniProt P48736). Briefly: ex-vivo PI3 kinase assay using recombinant PI3K. The test is classed as biochemical. The settings on record: ATP at Km. As for the experimental part: as §1
For another test, the target named is p110δ (Homo sapiens, UniProt O00329). The test is described as follows: ex-vivo PI3 kinase assay using recombinant PI3K. The test is classed as biochemical. The settings on record: ATP at Km. As for the experimental part: as §1
The next test deals with Akt/PKB phosphorylation. Briefly: TCR-induced Akt/PKB phosphorylation in thymocytes (Western blot). The test is classed as cell-based, mouse. The settings on record: thymocytes from 6 week old wild type animals. As for the experimental part: (§2) Cell lysates (from cell lines or thymocytes) were prepared on ice in M-PER Mammalian Protein Extraction reagent (Pierce) containing a cocktail of protease and phosphatase inhibitors (Swat et al., 2006). Equal amounts of total protein from lysates were subjected to SDS-PAGE, transferred to PVDF membrane (Immobilon-P, Millipore), and membranes probed by overnight incubation with appropriate primary antibodies. Bound antibodies were visualized with HRP-conjugated secondary antibodies and ECL chemistry (SuperPico West, Pierce).
To assess the requirement for p110δ in TCR-induced phosphorylation of Akt/PBK, single-cell suspensions of thymocytes (1×10^8/mL) from PI3Kγ-deficient animals were incubated with the p110δ-specific inhibitor IC87114 (10 μM) or with vehicle control (DMSO) for 30 minutes before TCR cross-linking, as described for the Ca^2+ flux assay. Aliquots (100 μL) were collected at 0, 10, 30, and 60 minutes after TCR cross-linking, briefly centrifuged to pellet, and subsequently lysed with ice-cold M-Per (Pierce, Rockford, IL) (according to the manufacturer's recommendations) that contained a cocktail of phosphatase and protease inhibitors (Puri et al., 2005). Lysates were clarified by centrifugation (12,000 g for 15 minutes at 4° C.), and total and phosphorylated Akt/PBK were determined by Western blot analysis.
In general terms: In western blotting, separated proteins are transferred to a membrane and probed.

For another test, the system named is PI3Kα. Briefly: PI3Kα isoform selective cell-based assay (PDGF-stimulated SW3T3 cells, P-Akt). The settings on record: compared to pan-PI3K/mTOR inhibitor BEZ235. The protocol: For the analysis of p110α-mediated signaling, SW3T3 cells were placed in serum free media (3 hours) and incubated with either CAL-130 or the Pan-PI3K/mTor inhibitor BEZ235 (Selleck Chemicals) for 1 hour prior to stimulation with PDGF (10 ng/ml; Cell Signaling) for 10 minutes at 37° C. After washing once in cold phosphate-buffered saline (PBS), the cell pellet was resuspended in lysis buffer (50 mM HEPES [N-2-hydroxyethylpiperazine-N-2-ethanesulfonic acid], pH 7.4, 150 mM NaCl, 10% glycerol, 1% Triton X-100, 1.5 mM MgCl2, 1 mM EGTA [ethylene glycol tetraacetic acid], 100 mM NaF, 1 mM phenylmethylsulfonyl fluoride, 1 mM NaVO4, 1 μg/ml leupeptin, and 1 μg/ml aprotinin) for 15 minutes on ice. Whole-cell lysates were obtained by centrifugation, and the soluble protein analyzed by Western blotting for Akt and P-Akt levels. Quantification was done using the Li-COR Odyssey imaging system.

The subject of another test is thymocytes. The test is described as follows: Effect on thymi of 6 week old mice treated 7 days. The class given is in vivo, mouse. The settings on record: 10 mg kg−1 every 8 hours for 7 days. The protocol:
Cell counts were measured on a Hemavet 850FS system (CDC Technologies, Oxford, CT), and standard procedures were followed for staining cells with the following antibody conjugates for flow cytometry (BD Biosciences, San Jose, CA) (Cella et al., 2004): phycoerythrin (PE) anti-CD4 (clone H129.19), fluorescein (FITC), PE, cytochrome c (CyC), or biotin anti-CD8a, FITC CD3c, CyC anti-B220, and Thy 1.2. Biotinylated antibodies were detected with either streptavidin-PE or streptavidin-CyC. Subsets of DN thymocytes were analyzed based on expression of CD25 and CD44 after gating out cells that stained with a cocktail of biotinylated antibodies to CD4, CD8, B220, Mac-1, and Gr-1 followed by streptavidin Cy-Chrome.
To assess the in vivo efficacy of the inhibitor, its effects on thymi of 6 week old mice were determined, specifically for its ability to recapitulate the phenotype observed when both p110γ and p110δ are deficient. Animals received 10 mg kg^−1 of the inhibitor orally, which was sufficient to maintain plasma concentrations of 0.33±0.18 μM at the end of 8 hours (FIG. 16D). […] In particular, there was a 18-fold reduction in total thymocyte number in comparison to controls, which was primarily due to the loss of DP population (FIG. 16H). These observations are consistent with the ability of CAL-130 to preferentially block the function of both PI3Kγ and PI3Kδ.

For the next test, the system named is CCRF-CEM cells. Briefly: Cell proliferation and apoptosis (cell counting, Annexin V). The class given is cell-based, human. The settings on record: CCRF-CEM. The protocol: Cell proliferation of CCRF-CEM cells or shRNA transfected CCRF-CEM cells, in the presence or absence of appropriate drug, was followed by cell counting of samples in triplicate using a hemocytometer and trypan blue. For apoptosis determinations of untransfected or shRNA transfected CCRF-CEMs, cells were stained with APC-conjugated Annexin-V (BD Biosciences) in Annexin Binding Buffer (Miltyeni Biotec) and analyzed by flow cytometry. For primary T-ALL samples, cell viability was assessed using the BD Cell Viability kit (BD Biosciences) coupled with the use of fluorescent counting beads as previously described (Armstrong et al., 2009). For this, cells were plated with MS5-DL1 stroma cells, and after 72 hours following drug treatment cells were harvested and stained with an APC-conjugated anti-human CD45 followed by a staining with the above kit according to the manufacturer's instructions.

The test system of test [1] is primary human T-ALL tumor cells. Briefly: Akt phosphorylation in primary T-ALL samples (immunoblot). The test is classed as cell-based. The settings on record: 6 hours of treatment. As for the experimental part: as §2
Where [2] appears, read: within 24 hours, persisted over 4 days.

Structures are written as SMILES.

Chain of p110γ (P48736 whole entry, species assumed): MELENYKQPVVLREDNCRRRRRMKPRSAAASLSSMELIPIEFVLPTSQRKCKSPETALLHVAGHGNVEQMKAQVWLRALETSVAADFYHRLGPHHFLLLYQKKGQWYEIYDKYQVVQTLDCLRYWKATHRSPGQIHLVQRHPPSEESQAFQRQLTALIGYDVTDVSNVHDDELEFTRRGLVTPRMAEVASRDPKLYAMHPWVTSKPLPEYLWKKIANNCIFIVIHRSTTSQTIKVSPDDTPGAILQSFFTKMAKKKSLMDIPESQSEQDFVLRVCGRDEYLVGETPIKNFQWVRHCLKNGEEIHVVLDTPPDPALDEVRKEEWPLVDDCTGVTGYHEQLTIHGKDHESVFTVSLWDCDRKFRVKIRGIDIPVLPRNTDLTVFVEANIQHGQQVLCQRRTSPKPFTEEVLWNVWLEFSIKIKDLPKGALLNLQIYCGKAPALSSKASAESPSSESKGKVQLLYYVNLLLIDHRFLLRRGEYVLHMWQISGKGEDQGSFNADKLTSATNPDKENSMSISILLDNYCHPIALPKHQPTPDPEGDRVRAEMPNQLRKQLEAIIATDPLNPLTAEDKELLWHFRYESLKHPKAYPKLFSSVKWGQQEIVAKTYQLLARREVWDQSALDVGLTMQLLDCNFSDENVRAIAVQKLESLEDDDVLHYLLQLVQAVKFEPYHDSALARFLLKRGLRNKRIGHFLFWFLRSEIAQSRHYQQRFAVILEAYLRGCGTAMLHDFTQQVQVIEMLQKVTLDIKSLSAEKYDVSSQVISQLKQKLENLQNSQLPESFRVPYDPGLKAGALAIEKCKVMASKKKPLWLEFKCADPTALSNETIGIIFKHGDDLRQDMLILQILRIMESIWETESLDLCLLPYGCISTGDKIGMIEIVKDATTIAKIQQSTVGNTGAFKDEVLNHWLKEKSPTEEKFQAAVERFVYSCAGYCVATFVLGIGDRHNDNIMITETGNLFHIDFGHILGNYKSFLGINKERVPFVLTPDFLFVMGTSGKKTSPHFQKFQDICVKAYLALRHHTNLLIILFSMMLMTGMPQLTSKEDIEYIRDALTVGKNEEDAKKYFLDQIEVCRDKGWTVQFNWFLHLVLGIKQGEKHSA
Chain of p110β (P42338 whole entry, species assumed): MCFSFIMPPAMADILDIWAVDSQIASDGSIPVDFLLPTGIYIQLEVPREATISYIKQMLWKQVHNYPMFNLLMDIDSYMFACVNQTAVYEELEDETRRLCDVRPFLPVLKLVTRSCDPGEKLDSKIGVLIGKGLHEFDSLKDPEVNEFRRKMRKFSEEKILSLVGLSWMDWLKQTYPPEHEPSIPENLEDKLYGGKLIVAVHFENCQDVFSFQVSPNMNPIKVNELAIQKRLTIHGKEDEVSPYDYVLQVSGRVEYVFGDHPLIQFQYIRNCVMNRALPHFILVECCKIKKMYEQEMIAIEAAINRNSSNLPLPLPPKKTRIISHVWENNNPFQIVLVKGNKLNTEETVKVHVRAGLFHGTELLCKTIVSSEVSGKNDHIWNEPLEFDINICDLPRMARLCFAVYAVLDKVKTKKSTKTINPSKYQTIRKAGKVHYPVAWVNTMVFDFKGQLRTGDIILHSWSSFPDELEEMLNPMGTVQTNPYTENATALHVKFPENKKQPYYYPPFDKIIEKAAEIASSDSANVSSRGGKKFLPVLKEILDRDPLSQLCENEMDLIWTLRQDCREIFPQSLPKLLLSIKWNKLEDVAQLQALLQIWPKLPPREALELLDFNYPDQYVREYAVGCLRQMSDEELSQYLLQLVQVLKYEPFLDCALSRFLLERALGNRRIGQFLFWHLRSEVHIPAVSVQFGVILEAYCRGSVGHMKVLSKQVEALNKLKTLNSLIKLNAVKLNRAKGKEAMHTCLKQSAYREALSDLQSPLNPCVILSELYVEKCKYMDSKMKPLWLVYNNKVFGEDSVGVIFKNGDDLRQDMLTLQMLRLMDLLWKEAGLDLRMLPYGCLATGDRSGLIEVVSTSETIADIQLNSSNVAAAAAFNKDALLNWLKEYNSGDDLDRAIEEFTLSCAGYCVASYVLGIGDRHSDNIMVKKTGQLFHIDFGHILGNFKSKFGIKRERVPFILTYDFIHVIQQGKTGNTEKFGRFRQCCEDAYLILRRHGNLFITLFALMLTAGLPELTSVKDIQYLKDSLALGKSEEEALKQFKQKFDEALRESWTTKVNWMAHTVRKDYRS
Chain of p110β (P27986 whole entry partner, species assumed): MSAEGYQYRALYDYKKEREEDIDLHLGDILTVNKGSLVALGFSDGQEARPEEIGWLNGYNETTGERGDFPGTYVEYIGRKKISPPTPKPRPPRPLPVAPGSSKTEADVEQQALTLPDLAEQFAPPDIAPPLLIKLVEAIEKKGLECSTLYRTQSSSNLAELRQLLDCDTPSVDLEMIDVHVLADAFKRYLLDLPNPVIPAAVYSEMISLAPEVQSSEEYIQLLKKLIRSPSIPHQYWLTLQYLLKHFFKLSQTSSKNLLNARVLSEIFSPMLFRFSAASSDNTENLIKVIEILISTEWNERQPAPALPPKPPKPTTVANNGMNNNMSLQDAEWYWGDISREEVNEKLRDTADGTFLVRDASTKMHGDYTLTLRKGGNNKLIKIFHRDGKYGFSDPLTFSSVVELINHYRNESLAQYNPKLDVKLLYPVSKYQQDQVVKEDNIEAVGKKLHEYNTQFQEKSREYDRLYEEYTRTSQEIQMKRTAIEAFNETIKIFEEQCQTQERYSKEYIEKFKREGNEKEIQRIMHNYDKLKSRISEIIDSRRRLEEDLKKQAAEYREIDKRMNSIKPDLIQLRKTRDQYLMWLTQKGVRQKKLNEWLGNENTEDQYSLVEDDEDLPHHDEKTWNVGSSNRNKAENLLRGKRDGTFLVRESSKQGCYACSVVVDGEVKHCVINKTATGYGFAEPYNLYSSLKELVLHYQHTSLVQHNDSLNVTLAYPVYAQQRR
Chain of p110δ (O00329 whole entry, species assumed): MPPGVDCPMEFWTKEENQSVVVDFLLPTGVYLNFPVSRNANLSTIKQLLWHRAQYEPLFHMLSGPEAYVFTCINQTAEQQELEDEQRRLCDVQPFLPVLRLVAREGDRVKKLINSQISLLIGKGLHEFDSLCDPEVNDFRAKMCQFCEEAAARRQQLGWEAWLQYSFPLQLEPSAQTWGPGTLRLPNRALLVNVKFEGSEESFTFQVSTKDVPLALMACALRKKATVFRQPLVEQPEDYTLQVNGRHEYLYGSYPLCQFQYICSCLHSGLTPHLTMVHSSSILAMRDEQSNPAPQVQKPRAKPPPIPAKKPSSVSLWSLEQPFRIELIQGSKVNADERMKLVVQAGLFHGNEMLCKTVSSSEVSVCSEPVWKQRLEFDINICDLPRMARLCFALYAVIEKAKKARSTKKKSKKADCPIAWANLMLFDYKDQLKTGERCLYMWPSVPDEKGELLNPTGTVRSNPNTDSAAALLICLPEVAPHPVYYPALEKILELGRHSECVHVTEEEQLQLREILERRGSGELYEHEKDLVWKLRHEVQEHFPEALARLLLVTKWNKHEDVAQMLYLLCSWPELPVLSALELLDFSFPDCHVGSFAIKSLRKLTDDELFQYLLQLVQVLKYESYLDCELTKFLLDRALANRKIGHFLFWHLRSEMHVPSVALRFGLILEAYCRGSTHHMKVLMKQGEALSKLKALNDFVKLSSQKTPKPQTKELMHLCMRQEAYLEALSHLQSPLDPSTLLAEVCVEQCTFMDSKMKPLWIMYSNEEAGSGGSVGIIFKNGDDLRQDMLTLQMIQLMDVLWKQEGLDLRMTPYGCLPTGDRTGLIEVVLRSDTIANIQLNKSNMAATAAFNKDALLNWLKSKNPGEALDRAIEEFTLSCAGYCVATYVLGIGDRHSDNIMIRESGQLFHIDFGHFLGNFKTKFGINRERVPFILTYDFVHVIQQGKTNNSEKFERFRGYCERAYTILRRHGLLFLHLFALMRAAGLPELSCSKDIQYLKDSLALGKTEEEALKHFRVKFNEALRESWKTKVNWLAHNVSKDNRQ
Chain of p110δ (P27986 whole entry partner, species assumed): as the sequence (P27986 whole entry partner, species assumed) above
Chain of p110α (P42336 whole entry, species assumed, canonical isoform): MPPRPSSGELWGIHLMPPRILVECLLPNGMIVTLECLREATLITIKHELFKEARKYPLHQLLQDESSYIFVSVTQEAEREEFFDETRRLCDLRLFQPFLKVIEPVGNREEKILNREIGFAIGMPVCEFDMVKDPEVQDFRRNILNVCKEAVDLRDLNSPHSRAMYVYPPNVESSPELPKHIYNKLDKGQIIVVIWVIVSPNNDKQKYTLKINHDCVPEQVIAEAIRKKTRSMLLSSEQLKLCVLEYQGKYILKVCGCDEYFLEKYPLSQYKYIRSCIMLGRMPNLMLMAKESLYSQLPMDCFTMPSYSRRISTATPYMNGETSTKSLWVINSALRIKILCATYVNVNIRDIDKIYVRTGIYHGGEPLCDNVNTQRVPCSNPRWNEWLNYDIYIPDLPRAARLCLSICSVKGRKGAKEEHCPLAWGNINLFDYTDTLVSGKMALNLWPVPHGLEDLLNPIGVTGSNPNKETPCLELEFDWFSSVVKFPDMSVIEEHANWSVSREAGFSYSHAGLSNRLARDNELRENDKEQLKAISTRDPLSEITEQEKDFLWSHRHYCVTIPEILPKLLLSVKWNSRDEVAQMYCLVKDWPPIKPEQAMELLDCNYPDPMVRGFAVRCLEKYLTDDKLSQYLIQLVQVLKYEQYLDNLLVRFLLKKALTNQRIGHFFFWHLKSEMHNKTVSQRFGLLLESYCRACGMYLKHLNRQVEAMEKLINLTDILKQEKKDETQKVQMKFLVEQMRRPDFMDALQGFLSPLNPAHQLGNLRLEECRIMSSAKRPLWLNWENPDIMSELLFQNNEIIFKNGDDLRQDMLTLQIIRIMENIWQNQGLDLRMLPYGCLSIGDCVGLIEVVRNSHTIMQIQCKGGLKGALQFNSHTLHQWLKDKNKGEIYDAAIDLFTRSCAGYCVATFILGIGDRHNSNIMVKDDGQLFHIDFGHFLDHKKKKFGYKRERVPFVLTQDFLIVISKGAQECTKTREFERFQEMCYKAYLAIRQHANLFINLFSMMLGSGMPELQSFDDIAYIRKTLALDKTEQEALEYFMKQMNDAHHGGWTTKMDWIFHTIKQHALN
Chain of p110α (P27986 whole entry partner, species assumed, canonical isoform): as the sequence (P27986 whole entry partner, species assumed) above
Method for PTEN null T-ALL: Mice deficient for PTEN in the T cell lineage were generated by crossing Lck-cre with floxed Pten (Hennet et al., 1995; Trotman et al., 2003).
Mice received an oral dose (10 mg kg^−1) of the inhibitor every 8 hours for a period of 7 days and were then followed until moribund.
Pten^fl/fl mice were crossed with a strain in which a luciferase cDNA, preceded by a LoxP-stop-LoxP cassette, was introduced into the ubiquitously expressed ROSA26 locus (Safran et al., 2003). Progeny were then crossed with Lck-cre transgenics to delete Pten in T cell progenitors and induce expression of luciferase (Lck/Pten^fl/fl; Gt(ROSA)26Sor^tm1(Luc)Kael/J).

The IC50 is the concentration at which inhibition is half-maximal. In the case of `Cc1ccccc1-n1c(C(C)Nc2nc(N)nc3nc[nH]c23)nc2cccc(C)c2c1=O` (centres unmarked) [CAL-130], the IC50 on p110α is 0.115 µM; at p110β, 0.056 µM; on p110γ, 0.0061 µM; at p110δ, 0.0013 µM. For the same molecule, the “TCR induced Akt phosphorylation (Ser473)” value in the test with Akt/PKB phosphorylation was “prevented”. Also, the “PDGF-induced activation of PI3Kα (Akt phosphorylation)” value with PI3Kα was “limited ability to impair”. In the test on thymocytes, the “reduction in total thymocyte number in comparison to controls” value amounted to 18 fold. The “apoptotic properties of dexamethasone” value in the test with CCRF-CEM cells (dexamethasone in combination with 2.5 μM CAL-130) is on record as “significantly enhanced”. Besides, the apoptosis result in the test with CCRF-CEM cells (setting [2]) is “promoted apoptosis”. Moreover, the proliferation result in the test on CCRF-CEM cells (setting [2]) is “prevented proliferation”. For the same molecule, the Akt phosphorylation result in test [1] is “reduction”. Further, the “weights of thymi, liver, spleen, and kidneys versus vehicle control” value with PTEN null T-ALL (7 days treatment) was “significantly less”. Further, the median survival in the test on PTEN null T-ALL (Lck/Pten fl/fl mice with T-ALL, oral 10 mg kg−1 every 8 hours for 7 days) amounted to 45 days. Also, in the test with PTEN null T-ALL (Lck/Pten fl/fl mice, by day 4), the WBC result is “dramatic reduction”. In addition, in the test on PTEN null T-ALL (Lck/Pten fl/fl mice, days 4 through 7), the “apoptosis (sub-G0 population after PI staining)” value is “increase in apoptosis”. For the same molecule, the bioluminescent signals result in the test on PTEN null T-ALL (Lck/Pten fl/fl;Gt(ROSA)26Sor luciferase mice, day 4 of treatment) is “dramatically lower”. Also, in the test on PTEN null T-ALL (diseased Lck/Pten fl/fl mice, within hours of treatment (data not shown)), the “peripheral blood T-ALL cells” value is “dramatic and sustained reduction”.
